Results from US20140155341A1, “USE OF SS'-DIMETHYL-GLIOTOXIN AS […] OF P[…] BY GLIOTOXIN-PRODUCING FUNGI OR THEIR DERIVATIVES” (priority 2011, published 2014).

Experiments:
[1] = Recovery of GT and bmGT from human whole blood (influence of blood cells); format: in vitro ADME; conditions: whole blood, human blood, blood centrifuged before extraction to eliminate cellular fraction; for recovery at 30 min, 5 µg/mL: 5 μg added to 1 ml; for recovery at 30 min, 20 µg/mL: 20 μg added to 1 ml
Procedure: (§1) […] Later, the blood was centrifuged at 2000 revolutions per minute (rpm) during 15 minutes, the serum was recovered and GT and bmGT were extracted and analysed as described above.
(§2) The samples were separated using a horizontal developing chamber (Camag) by facing the plates downwards. n-heptane (C7), MeOH, tetrahydrofuran (THF) and acetonitrile (ACN) (HPLC grade, Scharlau, Barcelona, Spain) were used as solvents. The separation and quantification of GT and bmGT was performed with a mixture of THF:C7:ACN (40:58:2) (v:v:v) during 3 min.
(§3) Detection and quantification by UV spectroscopy, a TLC3 scanner was used (Camag) in UV mode whereby a UV scanning densitometry was carried out to determine GT and bmGT (wavelength (λ)=280 and 367 nm). A linear scan with a beam of 4 mm×0.2 mm was used in both cases. The area under the peaks was quantified and saved using Camag's software.
(§4) In parallel, the influence of the presence of blood cells on the recovery of GT and bmGT was analysed. Unlike the serum and plasma, less than 10% of GT was recovered from the whole blood, even when large quantities of GT (20 ug) were added (Table 1). […] The precision of this determination was as high as in the serum or plasma with RSD values of between 9-16%. Aliquots of blood and plasma from the same unit of blood were used simultaneously to perform these determinations, therefore, the only, but crucial, difference between both fluids is the presence of red and white cells in the blood.

blood cells = experiment: as above; format: in vitro ADME; conditions: for lost in the blood cells: added to total blood, plasma levels analysed after 10 minutes
Procedure: as §1, §2, §3, §4

[2] = disulfide bond blocked by methylation; cited from earlier work

SMILES | recovery at 30 min, 5 µg/mL [1] | recovery at 30 min, 20 µg/mL [1] | lost in the blood cells (blood cells) | biological activity [2] | recovered from the whole blood (blood cells; whole blood, even when large quantities (20 ug) were added)
CS[C@]1(CO)C(=O)N2C3C(=CC=C[C@@H]3O)C[C@@]2(SC)C(=O)N1C (some centres unmarked) [bmGT] | 73.2% | 87.2% | 10-15% | biologically inactive | 
CN1C(=O)[C@]23CC4=CC=C[C@H](O)[C@H]4N2C(=O)[C@@]1(CO)SS3 [GT, Gliotoxin] | 8.44% | 6.56% | 90% |  | less than 10%
